Results reported in US20130052143A1, “LIQUID PREPARATION FOR ORAL ADMINISTRATION TO BE USED IN CT COLONOGRAPHY, AND COMPOSITION FOR DIGESTIVE TRACT IMAGING” (Ajinomoto Co., Inc., priority 2010, published 2013).

Conditions: in vivo
Excerpt: In the insufflation to inflate the intestinal tract, a carbon dioxide gas (CO2) was supplied by using a hand operated double balloon pump through the transanal route. […] No anticonvulsive agent was used.
The procedure of the imaging was such that: firstly, the posture of the examinee was set to the left lateral decubitus position; a tube for insufflation was inserted; and a gas was supplied to confirm that smooth insufflation was possible. Next, the posture of the examinee was set to the abdominal position; the insufflation was conducted until the examinee had claimed a strong feeling of fullness or the pressure inside the intestinal tract had reached 25 mmHg; scanography was performed to confirm that the large intestine had been sufficiently inflated; and thereafter the CT image was taken. After taking the image of the abdominal position, the posture of the examinee was set to the dorsal position, and scanography was again performed to take the CT image in the dorsal position. At this time, if the inflation of the large intestine had been insufficient, additional insufflation was conducted. After the completion of the CT image taking, colon endoscopy was conducted to see the circumstances of the residual feces and residual liquid in the large intestine by eye. The CT image was taken under the charge of a clinical X-ray technician.

examinees who felt abdominal pains: 50.0%
SMILES: O=C=O [CO2, carbon dioxide gas]
